According to US7772192B2, “Compositions and methods for treatment of disease with acetylated disaccharides” (The Regents of the University of California, priority 2003, dated 2010):

Columns and labels:
[1] = system: LS180 cells adhering to recombinant E-selectin; experiment: Cell adhesion to immobilized E-selectin; assay type: cell-based, human; settings: LS180 cells grown 5 days with disaccharide
Description: Cell adhesion to immobilized selectins. 96-well plates were coated overnight at 4° C. with recombinant E-selectin (4 μg/ml) or P-selectin (2 μg/ml) (R & D Systems) and blocked with 1% BSA/PBS. LS180 cells were grown for 5 days with various amounts of acetylated disaccharide, harvested, labeled with Calcein AM (5 μM, Molecular Probes) in DMEM/1% FBS, and allowed to settle at room temperature on selectin-coated wells (5×10^4 cells/well). Plates were then stirred at 75 rpm for 30 min (Orbit shaker, Lab-Line Instruments) followed by immersion upside-down in a vessel filled with Hank's buffered saline solution (HBSS, Sigma), which allowed non-adherent cells to fall under gravity. St John et al., J. Immunol Methods, 170: 159-166, 1994. The wells were then washed by aspiration using HBSS. LS180 cells were less adherent to P-selectin, so the immersion step was not necessary prior to washing. […] Fluorescence was measured using a 96-well fluorimeter (CytoFluor II), and the average of triplicate measurements was determined±standard error. Cell viability was judged to be >90% by Trypan blue exclusion at the end of each experiment.
Adhesion to selectins is altered in disaccharide-treated tumor cells. Treatment of LS180 cells with AcGnG-NM was not toxic to the cells up to 100 μM based on growth curves and exclusion of Trypan blue. […]

[2] = system: LS180 colon carcinoma cells; experiment: Adhesion of activated human platelets to tumor cells (LS180); assay type: cell-based; settings: 50 μM, 3 days, thrombin-activated human platelets
Description: Adhesion of activated human platelets to tumor cells. Tumor cells were seeded into 6-well plates (5×10^4/well), and allowed to grow into colonies in the presence or absence of 50 μM AcGnG-NM. After 3 days, platelets were isolated from 15 ml of normal human blood collected into 20% (v/v) Acid-Citrate-Dextrose (ACD) anticoagulant. A platelet-rich plasma was prepared by centrifugation and repeated washing using PSG buffer (5 mM HEPES, pH 6.8, 145 mM NaCl, 4 mM KCl, 0.5 mM sodium phosphate, 5.5 mM glucose, 0.5% BSA, and 25 nM prostaglandin E1 [Sigma]). The platelets were then labeled with Calcein AM (5 μM), and counted with a hemocytometer. Wells containing tumor cells were washed with HBSS, and 3×10^6 platelets were added in 1 ml of HBSS followed by activation with human thrombin (0.8 IU/well; Sigma). The plates were rocked for 10 min, and the wells were washed twice with HBSS, fixed with 5% formalin in HBSS, and analyzed by fluorescence microscopy. […]
Platelets bound to tumor cells were visualized by fluorescence microscopy (Nikon Diaphot) equipped with a digital camera (Nikon) linked to an Apple Macintosh computer with Adobe Photoshop software. The fluorescence image showing the platelets was superimposed on a phase-contrast picture of the cells and the number of attached platelets was quantified. […]

[3] = system: HAL8 human metastatic lung adenocarcinoma cells; experiment: Metastatic lung tumor formation in SCID mice (HAL8); assay type: in vivo

Substance: GlcNAcβ1,3Galβ-O-naphthalenemethanol [AcGnG-NM]
- adhesion to recombinant E-selectin [1]: reduced the ability of LS180 cells to adhere
- reduction of platelet adhesion [2]: 60%
- lung tumor foci [3]: behaved similarly
